Reference: US20260354376A1, “AGENT FOR IMPROVING ENVIRONMENTAL STRESS TOLERANCE” (OAT Agrio Co., Ltd., priority 2023, published 2026)

Tests used:
Type in all cases: in vivo
[1] = system: wheat (variety: Chikugoizumi); experiment: Test Example 11: dryness stress tolerance improvement on wheat (weight of grains per plant); conditions: dryness stress (irrigation about half), 0.1%
Excerpt: In Example 11, wheat (variety: Chikugoizumi) was sown in 1/5000a Wagner pots and cultivated at a density of 2 plants/pot. Next, all pots were irrigated with the same amount of tap water until the ear-emergence stage of wheat, and irrigation with a chemical solution was started after the ear emergence. In this test, dryness stress was induced by reducing the amount of irrigation to about half of the normal amount. After yellow ripening of the wheat was confirmed, the aboveground portions of the wheat were harvested, and the weight of grains per plant was investigated. A 30 ppm aqueous solution of the paprika pigment was used as the chemical solution.
In Comparative Example 13, the same test as in the test of Example 11 using the paprika pigment was repeated, except for using water for irrigation after the ear emergence.
In Reference Example 10, the same test as in the test of Example 11 using the paprika pigment was repeated, except for using a commercially available material for improving salt tolerance (material B) at the dilution factor shown in Table 11. […]
The results of Example 11, and Reference Examples 10 and 11 are expressed as the ratio (%) with respect to the result of Comparative Example 13 (untreated group) taken as 100.

[2] = system: paddy rice (Koshihikari); experiment: Test Example 5: salt stress tolerance improvement in rice hydroponics (regenerated root length, sodium chloride); conditions: sodium chloride 120 mM, 6 days, untreated = 100
Method: (§1) In Example 5, a liquid culture medium prepared by diluting OAT House Fertilizer (registered trademark) Formulation A, manufactured by OAT Agrio Co., Ltd., was placed in an erlenmeyer flask. Then, sodium chloride was added to the liquid culture medium to give a final concentration of 120 mM, and the capsanthin or paprika pigment was added to the liquid culture medium to give the concentrations shown in Table 3. Next, paddy rice (Koshihikari) was grown to seedlings in culture soil, and then the roots were cut to a predetermined length. Five of the seedlings were inserted into each erlenmeyer flask. Then, after cultivation for 6 days, the length of the roots of the rice was measured, and the length of regenerated roots was calculated.
In Comparative Example 7, the same test as in Example 5 was repeated, except for using the liquid culture medium not containing the capsanthin or paprika pigment.
In Reference Example 4, the same test as in Example 5 was repeated, except for using the liquid culture medium containing a commercially available material for improving salt tolerance (material B) at the dilution factor shown in Table 5, instead of the capsanthin and paprika pigment.
The results of Example 5 and Reference Example 4 are expressed as the ratio (%) with respect to the result of Comparative Example 7 (untreated group) taken as 100.

[3] = system: paddy rice (Koshihikari); experiment: Test Example 4: high-temperature stress tolerance improvement in rice hydroponics (regenerated root length, 35 °C); conditions: for Ratio to Untreated Group (length of regenerated roots): 35 °C (High-Temperature Stress), 6 days, untreated = 100
Method: as §1, with “4,” for “5,”, “Then,” for “Then, sodium chloride was added to”, “above-described” for “liquid culture medium to give a final concentration of 120 mM, and the”, “4.” for “3.”, “cultivation at 35 °C” for “cultivation”
In Comparative Example 6, the same test as in Example 4 was repeated, except for using the liquid culture medium not containing the capsanthin or paprika pigment.
The results of Example 4 are expressed as the ratio (%) with respect to the result of Comparative Example 6 (untreated group) taken as 100.

[4] = system: paddy rice (Koshihikari); experiment: Test Example 3: growth-promoting effect in rice hydroponics (regenerated root length, 25 °C); conditions: 25° C. (Growth Promotion), 6 days, untreated = 100
Method: In Example 3, a liquid culture medium prepared by diluting OAT House Fertilizer (registered trademark) Formulation A, manufactured by OAT Agrio Co., Ltd., was placed in an erlenmeyer flask. The capsanthin concentration in the paprika pigment (manufactured by San-Ei Gen F. F. I., Inc.) was measured by high performance liquid chromatography at General Incorporated Association Japan Food Research Laboratories. As a result, about 221 mg of capsanthin was contained in 100 g of the paprika pigment. The measurement conditions were as follows. • Model: LC-20 (manufactured by Shimadzu Corporation) • Detector: UV-VIS absorption spectrometer SPD-20AV (manufactured by Shimadzu Corporation) • Column: Shim-pack CLC-SIL (M) (size: 4.6 mm×150 mm) (manufactured by Shimadzu Corporation) • Column temperature: 30 °C. • Mobile phase: mixture of hexane and acetone (81:19) • Flow rate: 1.1 mL/min • Measurement wavelength: 474 nm • Injection volume: 30 μL
Next, paddy rice (Koshihikari) was grown to seedlings in culture soil, and then the roots of the rice were cut to a predetermined length. Five of the cut seedlings were inserted into each erlenmeyer flask containing the above-described liquid culture medium. Then, after cultivation at 25 °C for 6 days, the length of the roots of the rice was measured, and the length of regenerated roots was calculated.
In Comparative Example 5, the same test as in Example 3 was repeated, except for using the liquid culture medium not containing the capsanthin or paprika pigment.
In Reference Example 3, the same test as in Example 3 was repeated, except for using the liquid culture medium containing a commercially available material for improving high-temperature tolerance (material A) at the dilution factor shown in Table 3.
The dilution factor is shown for Reference Example 3, because the content of the active ingredient in the commercially available product is unknown.
The results of Example 3 and Reference Example 3 are expressed as the ratio (%) with respect to the result of Comparative Example 5 (untreated group) taken as 100.

| SMILES | Weight of Grains, Average ([1]; untreated 7.3) | Weight of Grains, Ratio to Untreated Group ([1]; untreated = 100) | Ratio to Untreated Group (length of regenerated roots) ([2]; capsanthin 0.0000663 ppm) | Ratio to Untreated Group (length of regenerated roots) ([2]; capsanthin 0.000221 ppm) | Ratio to Untreated Group (length of regenerated roots) ([2]; capsanthin 0.00221 ppm) | Ratio to Untreated Group (length of regenerated roots) ([2]; capsanthin 0.00663 ppm) | Ratio to Untreated Group (length of regenerated roots) ([2]; capsanthin 0.0221 ppm) | Ratio to Untreated Group (length of regenerated roots) ([2]; capsanthin 0.0663 ppm) | Ratio to Untreated Group (length of regenerated roots) ([3]; capsanthin 0.00000663 ppm) | Ratio to Untreated Group (length of regenerated roots) ([3]; capsanthin 0.0000663 ppm) | Ratio to Untreated Group (length of regenerated roots) ([3]; capsanthin 0.000221 ppm) | Ratio to Untreated Group (length of regenerated roots) ([3]; capsanthin 0.00221 ppm) | Ratio to Untreated Group (length of regenerated roots) ([3]; capsanthin 0.00663 ppm) | Ratio to Untreated Group (length of regenerated roots) ([3]; capsanthin 0.0221 ppm) | Ratio to Untreated Group (length of regenerated roots) ([3]; capsanthin 0.0663 ppm) | effect compared with paprika pigment (in words) ([3]; Tables 3 to 5 (25 °C, 35 °C, sodium chloride), same concentrations of capsanthin) | Ratio to Untreated Group (length of regenerated roots) ([4]; capsanthin 0.00000663 ppm) | Ratio to Untreated Group (length of regenerated roots) ([4]; capsanthin 0.0000663 ppm) | Ratio to Untreated Group (length of regenerated roots) ([4]; capsanthin 0.000221 ppm) | Ratio to Untreated Group (length of regenerated roots) ([4]; capsanthin 0.00221 ppm) |
| --- | --- | --- | --- | --- | --- | --- | --- | --- | --- | --- | --- | --- | --- | --- | --- | --- | --- | --- | --- | --- |
| CC(=O)O [Potassium Acetate, potassium acetate] | 9.3 g DW/Plant | 126% | – | – | – | – | – | – | – | – | – | – | – | – | – | – | – | – | – | – |
| CC1=C(/C=C/C(C)=C/C=C/C(C)=C/C=C/C=C(C)/C=C/C=C(C)/C=C/C(=O)[C@]2(C)C[C@@H](O)CC2(C)C)C(C)(C)C[C@H](O)C1 [Capsanthin, capsanthin] | – | – | 104% | 103% | 107% | 114% | 111% | 126% | 115% | 132% | 113% | 122% | 114% | 109% | 140% | comparable effect to that of the paprika pigment | 104% | 102% | 102% | 108% |
